Data as given in PMC5889410, “Design and Biological Evaluation of Antifouling Dihydrostilbene Oxime Hybrids” (Marine Biotechnology (New York, N.y.), 2018).
In brackets after ≈: the same amount, converted by molar mass.

Assays:
[1] = tested on: Pleurochrysis roscoffensis; assay: Microalgal growth assay (chlorophyll a); format: cell-based; details: Chrysotila roscoffensis, 120 h, 5 days incubation, 10–0.01 μg/mL tested, read-out: MIC against the growth (G) of microalgae, P. roscoffensis
Text: (§1) Cyprid larvae of B. improvisus were reared in a laboratory cultivating system at Tjärnö Marine Biological Laboratory, University of Gothenburg, Sweden, as previously described by Berntsson et al. ([2000]). Four pure, but non-axenic, marine microalgae (obtained from Algobank, Caen, France) and 10 marine bacterial strains were used (Table 1) as representative microfoulers. These strains represent fouling species encountered in both estuarine and marine environments (Moodie et al. [2017b]). The bacteria were grown at 26 °C in a marine medium, composed of 0.5% peptone (neutralized bacteriological peptone, Oxoid Ltd.) in filtered (Whatman 1001–270, pore size 11 μm) natural seawater. Microalgae were grown and maintained at 22 °C in F/2 medium.
(§2) Microplates containing the compounds in ranging concentrations (10–0.01 μg/mL) were prepared from MeOH stock solutions as previously described (Trepos et al. [2014]; Moodie et al. [2017a]). Microalgal stock solutions were prepared using the chlorophyll analysis methodology of Chambers et al. ([2011]). The pretreated microplate wells were treated with 100 μL of the algal stock solutions (0.1 mg chlorophyll a/mL). The plates were then incubated for 5 days at 20 °C under constant light exposure (140 μmol m^−2 s^−1). Both microalgal adhesion and growth inhibition were measured. Growth was determined by analysis of liberated chlorophyll a after centrifugation and methanol addition. Chlorophyll a was quantified fluorometrically. MIC value for algal growth was defined as the lowest concentration yielding a decrease in chlorophyll a content. Microalgal adhesion was determined in an analogous manner where the non-attached algal cells were removed prior to methanol addition (100 μL), releasing chlorophyll a from the remaining algal biofilms. The MIC for adhesion was defined as the lowest compound concentration causing a reduction in […]. Toxicity experiments were performed in an analogous manner to those described for the bacterial assays.

Halamphora coffeaeformis [2] = assay: Microalgal growth assay (chlorophyll a); format: cell-based; details: Halamphora coffeiformis, 120 h, 5 days incubation, 10–0.01 μg/mL tested, read-out: MIC against the growth (G) of microalgae, H. coffeaformis
Text: as §1, §2

Porphyridium purpureum [3] = assay: Microalgal growth assay (chlorophyll a); format: cell-based; details: 120 h, 5 days incubation, 10–0.01 μg/mL tested, read-out: MIC against the growth (G) of microalgae, P. purpureum
Text: as §1, §2

Cylindrotheca closterium = assay: Microalgal growth assay (chlorophyll a); format: cell-based; details: 120 h, 5 days incubation, 10–0.01 μg/mL tested, read-out: MIC against the growth (G) of microalgae, C. closterium
Text: as §1, §2

[4] = tested on: Balanus improvisus cyprid larvae; assay: whole plant or invertebrate; format: in vivo; details: for IC50: Amphibalanus improvisus, 120 h, read-out: IC50 (cyprid settlement inhibition); for Toxicity (%) (dead cyprids): Balanus improvisus, in vivo, 5 days, 5 μg/mL
Text: as §1
Stock solutions of compounds in DMSO were serially diluted in untreated polystyrene Petri dishes containing 10 mL of filtered (0.2 μm) seawater, affording final concentrations ranging from 0.1 to 10 μg/mL. Freshly molted balanide cyprids (18–22) were added to each Petri dish and incubated at ambient temperature (20–25 °C) for 5 days. Cyprid metamorphosis was assessed using a dissecting microscope where the numbers of juvenile settled, free-swimming, and dead cyprids were noted. Initial compound screening was conducted at 5 μg/mL, and full IC50 determination was performed only on compounds displaying > 50% inhibition at that concentration. The IC50 was defined as the concentration preventing 50% of the cyprid settlement on the Petri dish surface. Each concentration was replicated four times (n = 4), and dishes containing 0.1% of DMSO were used as negative controls. The commercial AF agent Sea-nine™ was employed as a positive control.

Halomonas aquamarina = assay: Bacterial growth assay (OD 630 nm); format: cell-based; details: Vreelandella aquamarina, 48 h incubation, 10–0.01 μg/mL tested, read-out: MIC against the growth of marine bacteria, H.a.
Text: as §1
(§3) Bacterial strain adhesion and growth were determined according to the methods of Thabard et al. ([2011]). Bacterial suspensions (100-μL aliquots, 2 × 10^8 colony forming units/mL) were aseptically added to the compound containing microplate wells (10–0.01 μg/mL), and the plates were incubated for 48 h at 26 °C. Media only was used as a blank. Bacterial growth was monitored spectroscopically at 630 nm. The minimal inhibitory concentration (MIC) for bacterial growth was defined as the lowest concentration which results in a decrease in OD. After 48-h incubation time, the bacterial adhesion assay was conducted by emptying the wells and rinsing with sterile seawater (100 μL) to remove non-attached cells, and air-drying at room temperature. The residual bacterial biofilm was stained with aqueous crystal violet (100 μL, 0.3% v/v) and the OD measured at 595 nm (Sonak and Bhosle [1995]). […] If inhibition was observed, toxicity tests were conducted. The well contents were transferred into a flask of fresh media, and growth was measured after 5 days of additional incubation. The mode of action was deemed biostatic if an increase in OD was measured at 595 nm (Moodie et al. [2017a]).

Vibrio natriegens = assay: Bacterial growth assay (OD 630 nm); format: cell-based; details: 48 h incubation, 10–0.01 μg/mL tested, read-out: MIC against the growth of marine bacteria, V.n.
Text: as §1, §3

Vibrio harveyi = assay: Bacterial growth assay (OD 630 nm); format: cell-based; details: 48 h incubation, 10–0.01 μg/mL tested, read-out: MIC against the growth of marine bacteria, V.h.
Text: as §1, §3

Vibrio proteolyticus = assay: Bacterial growth assay (OD 630 nm); format: cell-based; details: 48 h incubation, 10–0.01 μg/mL tested, read-out: MIC against the growth of marine bacteria, V.p.
Text: as §1, §3

Shewanella putrefaciens = assay: Bacterial growth assay (OD 630 nm); format: cell-based; details: 48 h incubation, 10–0.01 μg/mL tested, read-out: MIC against the growth of marine bacteria, S.p.
Text: as §1, §3

Vibrio aestuarianus = assay: Bacterial growth assay (OD 630 nm); format: cell-based; details: 48 h incubation, 10–0.01 μg/mL tested, read-out: MIC against the growth of marine bacteria, V.a.
Text: as §1, §3

Vibrio carchariae = assay: Bacterial growth assay (OD 630 nm); format: cell-based; details: Vibrio harveyi, 48 h incubation, 10–0.01 μg/mL tested, read-out: MIC against the growth of marine bacteria, V.c.
Text: as §1, §3

Roseobacter litoralis = assay: Bacterial growth assay (OD 630 nm); format: cell-based; details: 48 h incubation, 10–0.01 μg/mL tested, read-out: MIC against the growth of marine bacteria, R.l.
Text: as §1, §3

[5] = tested on: Pseudoalteromonas elyakovii; assay: Bacterial growth assay (OD 630 nm); format: cell-based; details: 48 h incubation, 10–0.01 μg/mL tested, read-out: MIC against the growth of marine bacteria, P.e.
Text: as §1, §3

marine bacteria [6] = assay: Bacterial growth assay, whole panel of ten strains; format: cell-based, 10 marine bacterial strains; details: tested up to 10 μg/mL
Text: as §1, §3

[7] = tested on: Pleurochrysis roscoffensis; assay: Microalgal adhesion assay (chlorophyll a); format: cell-based; details: Chrysotila roscoffensis, 120 h, 5 days incubation, 10–0.01 μg/mL tested, read-out: MIC against the adhesion (A) of microalgae, P. roscoffensis
Text: as §1, §2

marine bacteria [8] = assay: Bacterial adhesion assay, whole panel of ten strains; format: cell-based, 10 marine bacterial strains; details: tested up to 10 μg/mL, active = MIC of 10 μg/mL or below
Text: as §1, §3

Halamphora coffeaeformis [9] = assay: Microalgal adhesion assay (chlorophyll a); format: cell-based; details: Halamphora coffeiformis, 120 h, 5 days incubation, 10–0.01 μg/mL tested, read-out: MIC against the adhesion (A) of microalgae, H. coffeaformis
Text: as §1, §2

Porphyridium purpureum [10] = assay: Microalgal adhesion assay (chlorophyll a); format: cell-based; details: 120 h, 5 days incubation, 10–0.01 μg/mL tested, read-out: MIC against the adhesion (A) of microalgae, P. purpureum
Text: as §1, §2

microalgae = assay: Microalgal adhesion and growth, whole panel of four species; format: cell-based, four marine microalgae; details: 10–0.01 μg/mL tested
Text: as §1, §2

Structure (SMILES)	MIC [1]	MIC (Halamphora coffeaeformis [2])	MIC (Porphyridium purpureum [3])	MIC (Cylindrotheca closterium)	IC50 [4]	Toxicity (%) (dead cyprids) [4]	MIC (Halomonas aquamarina)	MIC (Vibrio natriegens)	MIC (Vibrio harveyi)	MIC (Vibrio proteolyticus)	MIC (Shewanella putrefaciens)	MIC (Vibrio aestuarianus)	MIC (Vibrio carchariae)	MIC (Roseobacter litoralis)	MIC [5]	MIC / activity against the growth of all bacteria tested (marine bacteria [6])	MIC [7]	MIC / activity against the adhesion of all bacteria tested (marine bacteria [8])	also measured
COc1cc(C(Cc2ccc(O)cc2)=NO)ccc1O [Compound 12, 1-(3-methoxy-4-hydroxyphenyl)-1-hydroxyimino-2-(4’-hydroxyphenyl)-ethane]	10 µg/mL (≈ 36.6 µM)	10 µg/mL (≈ 36.6 µM)	> 10 µg/mL	> 10 µg/mL	2.5 µg/mL (≈ 9.15 µM)	3.5%	0.1 µg/mL (≈ 0.366 µM)	> 10 µg/mL	> 10 µg/mL	> 10 µg/mL	0.1 µg/mL (≈ 0.366 µM)	> 10 µg/mL	> 10 µg/mL	1 µg/mL (≈ 3.66 µM)	10 µg/mL (≈ 36.6 µM)	active against four strains			
COc1ccc(CC(=NO)c2ccc(O)c(O)c2)cc1 [Compound 10, 1-(3,4-Dihydroxyphenyl)-1-Hydroxyimino-2-(4′-Methoxyphenyl)-Ethane]	1 µg/mL (≈ 3.66 µM)	1 µg/mL (≈ 3.66 µM)	> 10 µg/mL	10 µg/mL (≈ 36.6 µM)	5 µg/mL (≈ 18.3 µM)	2.6%	> 10 µg/mL	10 µg/mL (≈ 36.6 µM)	> 10 µg/mL	> 10 µg/mL	> 10 µg/mL	> 10 µg/mL	> 10 µg/mL	> 10 µg/mL	1 µg/mL (≈ 3.66 µM)		0.1 µg/mL (≈ 0.366 µM)	^aCompounds 7, 8, 10, 11, and 12 were inactive against the adhesion of all bacteria tested up to 10 μg/mL	
COc1ccc(C(Cc2ccc(O)cc2)=NO)cc1OC [Compound 8, 1-(3,4-dimethoxyphenyl)-1-hydroxyimino-2-(4’-hydroxyphenyl)-ethane]	10 µg/mL (≈ 34.8 µM)	10 µg/mL (≈ 34.8 µM)	> 10 µg/mL	10 µg/mL (≈ 34.8 µM)	5 µg/mL (≈ 17.4 µM)	0.0%	10 µg/mL (≈ 34.8 µM)	> 10 µg/mL	> 10 µg/mL	> 10 µg/mL	1 µg/mL (≈ 3.48 µM)	> 10 µg/mL	> 10 µg/mL	> 10 µg/mL	> 10 µg/mL			^aCompounds 7, 8, 10, 11, and 12 were inactive against the adhesion of all bacteria tested up to 10 μg/mL	
COc1ccc(C(Cc2ccccc2)=NO)cc1OC [Compound 7, 1-(3,4-dimethoxyphenyl)-1-hydroxyimino-2-phenylethane]	0.01 µg/mL (≈ 0.0369 µM)	0.1 µg/mL (≈ 0.369 µM)	10 µg/mL (≈ 36.9 µM)	1 µg/mL (≈ 3.69 µM)	2.5 µg/mL (≈ 9.21 µM)	5.8%	> 10 µg/mL	> 10 µg/mL	1 µg/mL (≈ 3.69 µM)	> 10 µg/mL	> 10 µg/mL	10 µg/mL (≈ 36.9 µM)	10 µg/mL (≈ 36.9 µM)	> 10 µg/mL	> 10 µg/mL	modest activity			MIC (Halamphora coffeaeformis [9]): 0.01 µg/mL (≈ 0.0369 µM); MIC (Porphyridium purpureum [10]): 1 µg/mL (≈ 3.69 µM); MIC / activity against the attachment and growth of microalgae (microalgae): inhibited both the settlement and growth of all of the tested species
COc1ccc(CC(=NO)c2ccc(OC)c(OC)c2)cc1 [Compound 9, 1-(3,4-dimethoxyphenyl)-1-hydroxyimino-2-(4’-methoxyphenyl)-ethane]	> 10 µg/mL	10 µg/mL (≈ 33.2 µM)	> 10 µg/mL	10 µg/mL (≈ 33.2 µM)	1.5 µg/mL (≈ 4.98 µM)	0.0%	10 µg/mL (≈ 33.2 µM)	> 10 µg/mL	> 10 µg/mL	> 10 µg/mL	0.1 µg/mL (≈ 0.332 µM)	> 10 µg/mL	> 10 µg/mL	> 10 µg/mL	> 10 µg/mL		10 µg/mL (≈ 33.2 µM)	displayed inhibitory activities	
